{"source": "ChEMBL document CHEMBL5543095", "about": "(Eur J Med Chem, 2024)", "key": {"[1]": {"test_system": "U-87 MG", "assay": "Induction of apoptosis in human U87 cells assessed as dead cells at 0.625 uM incubated for 48 hrs by Annexin V-FITC/PI staining based flow cytometry analysis (reference value: 0.013%)", "format": "functional, U-87MG ATCC"}, "[2]": {"test_system": "U-87MG ATCC", "assay": "Downregulation of TUBA1A gene expression in human U87 cells by transcriptome analysis", "format": "functional, cell-based"}, "[3]": {"test_system": "U-87 MG", "assay": "Induction of cell cycle arrest in human U87 cells assessed as accumulation of cells at G1 phase at 0.5 uM measured after 48 hrs by PI staining based flow cytometry analysis (reference value: 72.6%)", "format": "functional, U-87MG ATCC"}, "[4]": {"test_system": "U-87 MG", "assay": "Induction of cell cycle arrest in human U87 cells assessed as accumulation of cells at G1 phase at 4 uM measured after 48 hrs by PI staining based flow cytometry analysis (reference value: 72.6%)", "format": "functional, U-87MG ATCC"}, "[5]": {"test_system": "U-87 MG", "assay": "Antiproliferative activity against human U87 cells assessed as inhibition of cell growth inhibition incubated for 48 hrs by CCK-8 assay", "format": "functional, cell-based, U-87MG ATCC"}, "[6]": {"biological_target": "T1, Tubulin (Homo sapiens) (UniProt P68371+Q9H4B7+P0DPH7+P68366+Q13509+Q71U36+P04350+Q3ZCM7+P07437+P68363+Q9BQE3+Q6PEY2+Q13885+Q9BVA1+Q9BUF5)", "assay": "Induction of microtubule depolymerization in human U87 cells assessed as degradation of intracellular tubulin skeleton by measuring reduction in fluorescence intensity at 0.5 to 1 uM incubated for 48 hrs by Alexa Flour 555/DAPI staining based confocal microscopic analysis", "format": "cell-based", "settings": "dose 0.5-1 µM"}, "[7]": {"assay": "Apparent permeability across apical to basolateral side in MDCK-MDR1 cells at 10 uM incubated for 90 mins by LC-MS/MS analysis", "format": "ADME, cell-based, Canis lupus familiaris", "settings": "dog"}, "[8]": {"test_system": "Huh-7", "assay": "Antiproliferative activity against human Huh-7 cells assessed as inhibition of cell growth inhibition incubated for 48 hrs by CCK-8 assay", "format": "functional, cell-based", "settings": "Huh-7, 48 h"}, "[9]": {"test_system": "GL261-Luc", "assay": "Antitumor activity against mouse GL261-Luc cells implanted in iv dosed C57BL/6 mouse assessed as inhibition of tumor growth administered every other day on day 0,2,4,6,8,10 and measured on day 12 by bioluminescence imaging analysis", "format": "functional, organism-based", "settings": "dose 5-10 mg/kg, time 12.0 day"}, "[10]": {"assay": "Toxicity in C57BL/6 mouse implanted with mouse GL261-Luc cells assessed as histopathological changes in heart at 5 to 10 mg/kg, iv administered every other day on day 0,2,4,6,8,10 and measured after 12 days by H and E staining based analysis", "format": "organism-based", "settings": "in vivo, 288 h, dose 5-10 mg/kg, time 12 day"}, "[11]": {"test_system": "U-87 MG", "assay": "Induction of cell cycle arrest in human U87 cells assessed as accumulation of cells at G1 phase at 2 uM measured after 48 hrs by PI staining based flow cytometry analysis (reference value: 72.6%)", "format": "functional, U-87MG ATCC"}, "[12]": {"test_system": "U-87 MG", "assay": "Induction of apoptosis in human U87 cells assessed as live cells at 0.3125 uM incubated for 48 hrs by Annexin V-FITC/PI staining based flow cytometry analysis (reference value: 91.7%)", "format": "functional, U-87MG ATCC"}, "[13]": {"test_system": "U-87 MG", "assay": "Induction of apoptosis in human U87 cells assessed as early apoptotic cells at 1.25 uM incubated for 48 hrs by Annexin V-FITC/PI staining based flow cytometry analysis (reference value: 6.25%)", "format": "functional, U-87MG ATCC"}, "[14]": {"test_system": "U-87 MG", "assay": "Induction of cell cycle arrest in human U87 cells assessed as accumulation of cells at […] at 1 uM measured after 48 hrs by PI staining based flow cytometry analysis (reference value: 8.55%)", "format": "functional, U-87MG ATCC"}, "[15]": {"assay": "Toxicity in C57BL/6 mouse implanted with mouse GL261-Luc cells assessed as histopathological changes in lung at 5 to 10 mg/kg, iv administered every other day on day 0,2,4,6,8,10 and measured after 12 days by H and E staining based analysis", "format": "organism-based", "settings": "in vivo, 288 h, dose 5-10 mg/kg, time 12 day"}, "[16]": {"test_system": "U-87MG ATCC", "assay": "Upregulation of CGNL1 gene expression in human U87 cells by transcriptome analysis", "format": "functional, cell-based"}, "[17]": {"test_system": "U-87 MG", "assay": "Induction of apoptosis in human U87 cells assessed as dead cells at 1.25 uM incubated for 48 hrs by Annexin V-FITC/PI staining based flow cytometry analysis (reference value: 0.013%)", "format": "functional, U-87MG ATCC"}, "[18]": {"assay": "Toxicity in C57BL/6 mouse implanted with mouse GL261-Luc cells assessed as histopathological changes in liver at 5 to 10 mg/kg, iv administered every other day on day 0,2,4,6,8,10 and measured after 12 days by H and E staining based analysis", "format": "organism-based", "settings": "in vivo, 288 h, dose 5-10 mg/kg, time 12 day"}, "[19]": {"test_system": "U-87 MG", "assay": "Induction of cell cycle arrest in human U87 cells assessed as accumulation of cells at […] at 2 uM measured after 48 hrs by PI staining based flow cytometry analysis (reference value: 8.55%)", "format": "functional, U-87MG ATCC"}, "[20]": {"test_system": "U-87 MG", "assay": "Induction of cell cycle arrest in human U87 cells assessed as accumulation of cells at […] at 4 uM measured after 48 hrs by PI staining based flow cytometry analysis (reference value: 8.55%)", "format": "functional, U-87MG ATCC"}, "[21]": {"test_system": "GL261-Luc", "assay": "Antitumor activity against mouse GL261-Luc cells implanted in C57BL/6 mouse assessed as prolongation of animal survival time at 5 to 10 mg/kg, iv administered every other day on day 0,2,4,6,8,10 and measured after 12 days", "format": "functional, organism-based", "settings": "dose 5-10 mg/kg, time 12.0 day"}, "[22]": {"test_system": "U-87MG ATCC", "assay": "Upregulation of NECTIN4 gene expression in human U87 cells by transcriptome analysis", "format": "functional, cell-based"}, "[23]": {"test_system": "U-87MG ATCC", "assay": "Downregulation of TUBA1B gene expression in human U87 cells by transcriptome analysis", "format": "functional, cell-based"}, "[24]": {"test_system": "U-87 MG", "assay": "Induction of apoptosis in human U87 cells assessed as live cells at 0.625 uM incubated for 48 hrs by Annexin V-FITC/PI staining based flow cytometry analysis (reference value: 91.7%)", "format": "functional, U-87MG ATCC"}, "[25]": {"assay": "Apparent permeability across basolateral to apical side in MDCK-MDR1 cells at 10 uM incubated for 90 mins by LC-MS/MS analysis", "format": "ADME, cell-based, Canis lupus familiaris", "settings": "dog"}, "[26]": {"test_system": "U-87 MG", "assay": "Induction of apoptosis in human U87 cells assessed as dead cells at 2.5 uM incubated for 48 hrs by Annexin V-FITC/PI staining based flow cytometry analysis (reference value: 0.013%)", "format": "functional, U-87MG ATCC"}, "[27]": {"test_system": "U-87 MG", "assay": "Induction of apoptosis in human U87 cells assessed as dead cells at 0.3125 uM incubated for 48 hrs by Annexin V-FITC/PI staining based flow cytometry analysis (reference value: 0.013%)", "format": "functional, U-87MG ATCC"}, "[28]": {"test_system": "U-87MG ATCC", "assay": "Downregulation of TUBB4B gene expression in human U87 cells by transcriptome analysis", "format": "functional, cell-based"}, "[29]": {"test_system": "U-87 MG", "assay": "Induction of cell cycle arrest in human U87 cells assessed as accumulation of cells at G1 phase at 1 uM measured after 48 hrs by PI staining based flow cytometry analysis (reference value: 72.6%)", "format": "functional, U-87MG ATCC"}, "[30]": {"test_system": "U-87 MG", "assay": "Induction of cell cycle arrest in human U87 cells assessed as accumulation of cells at […] at 0.5 uM measured after 48 hrs by PI staining based flow cytometry analysis (reference value: 8.55%)", "format": "functional, U-87MG ATCC"}, "[31]": {"assay": "Toxicity in C57BL/6 mouse implanted with mouse GL261-Luc cells assessed as histopathological changes in kidney at 5 to 10 mg/kg, iv administered every other day on day 0,2,4,6,8,10 and measured after 12 days by H and E staining based analysis", "format": "organism-based", "settings": "in vivo, 288 h, dose 5-10 mg/kg, time 12 day"}, "[32]": {"biological_target": "T1, Tubulin (Homo sapiens)", "assay": "Inhibition of tubulin (unknown origin) polymerization assessed as reduction in steady state content of tubulins at 6 to 12 uM by fluorescence based analysis", "format": "protein-complex assay", "settings": "dose 6-12 µM"}}, "note": "Active and inactive are the calls of the source. The rule behind the calls is not given here.", "data": [{"smiles": "Cc1ccc2ccc3c(c2n1)OC(N)=C(C#N)C3c1ccccc1", "note": "(configuration not stated)", "values": [{"measurement": "Activity", "setting": "[1]", "value": 0.1, "unit": "%"}, {"measurement": "Activity", "setting": "[2]", "value": "Active"}, {"measurement": "Activity", "setting": "[3]", "value": 72, "unit": "%"}, {"measurement": "Activity", "setting": "[4]", "value": 13, "unit": "%"}, {"measurement": "IC50", "setting": "[5]", "value": 900, "unit": "nM"}, {"measurement": "Activity", "setting": "[6]", "value": "Active"}, {"measurement": "Papp A→B at 1.5 h, 10 µM", "setting": "[7]", "value": 33.7, "unit": "×10⁻⁶ cm/s"}, {"measurement": "IC50", "setting": "[8]", "value": 1190, "unit": "nM"}, {"measurement": "Activity", "setting": "[9]", "value": "Dose-Dependent Effect"}, {"measurement": "Activity", "setting": "[10]", "value": "Non-Toxic"}, {"measurement": "Activity", "setting": "[11]", "value": 14.4, "unit": "%"}, {"measurement": "Activity", "setting": "[12]", "value": 88.1, "unit": "%"}, {"measurement": "Activity", "setting": "[13]", "value": 21.2, "unit": "%"}, {"measurement": "Activity", "setting": "[14]", "value": 24.6, "unit": "%"}, {"measurement": "Activity", "setting": "[15]", "value": "Non-Toxic"}, {"measurement": "Activity", "setting": "[16]", "value": "Active"}, {"measurement": "Activity", "setting": "[17]", "value": 0.027, "unit": "%"}, {"measurement": "Activity", "setting": "[18]", "value": "Non-Toxic"}, {"measurement": "Activity", "setting": "[19]", "value": 56.2, "unit": "%"}, {"measurement": "Activity", "setting": "[20]", "value": 59.3, "unit": "%"}, {"measurement": "Activity", "setting": "[21]", "value": "Active"}, {"measurement": "Activity", "setting": "[22]", "value": "Active"}, {"measurement": "Activity", "setting": "[23]", "value": "Active"}, {"measurement": "Activity", "setting": "[24]", "value": 75.9, "unit": "%"}, {"measurement": "Papp B→A at 1.5 h, 10 µM", "setting": "[25]", "value": 25.8, "unit": "×10⁻⁶ cm/s"}, {"measurement": "Activity", "setting": "[26]", "value": 0.1, "unit": "%"}, {"measurement": "Activity", "setting": "[27]", "value": 0.019, "unit": "%"}, {"measurement": "Activity", "setting": "[28]", "value": "Active"}, {"measurement": "Activity", "setting": "[29]", "value": 33, "unit": "%"}, {"measurement": "Activity", "setting": "[30]", "value": 10.6, "unit": "%"}, {"measurement": "Activity", "setting": "[31]", "value": "Non-Toxic"}, {"measurement": "inhibition", "setting": "[32]", "value": "Active"}]}]}
